Read-outs that look alike come from different tables or passages of the source.
Legend:
PDE10 = PDE10 (Homo sapiens, UniProt Q9Y233); assay: PDE10 assay with fluorescent substrate (IMAP, fluorescence polarization); assay type: biochemical
Description: (§1) c) Phosphodiesterase (PDE) 2A and 10 Assay with Fluorescent Substrate
(§2) The PDE reaction cleaves cAMP to AMP. The IMAP system (Molecular Device) using fluorescence polarization (FP) as detection principle was used to measure enzyme activity. A fluorescent labeled cAMP was used as substrate for the reaction, generating a labeled AMP. The fluorescent AMP binds specifically to the large M(III)-based nano-particles which reduces the rotational speed of the substrate and thus increases its polarization.
(§3) The inhibition of PDE 2A or 10 enzyme activity was assessed using IMAP-Phosphodiesterase-cAMP fluorescence labeled substrate (Molecular Devices, Order No. R7506), IMAP TR-FRET screening express (Molecular Devices, Order No. R8160, the TR-FRET component will not be used) and PDE 2A or PDE10 protein expressed upon baculovirus infection in SF9 cells. The cells were incubated after infection for ˜3 days and protein production was confirmed by Western Blot. The cells were collected by centrifugation and the pellet frozen in liquid nitrogen before it was resuspended in PBS containing 1% Triton X-100 and protease inhibitors.
(§4) All reactions were performed in 384 well plates, Perkin Elmer black optiplates and IMAP reaction buffer with 0.1% Tween20 (kit component)
(§5) Compounds were serial diluted in DMSO. With an intermediate dilution step with reaction buffer DMSO concentration was reduced to achieve 1% DMSO in the assay reaction. Setup of the assay started with 10 μl enzyme (˜10 ng/well, depending on prep. batch), 5 μl compound, reaction was started by addition of 5 μl labeled cAMP (30 nM, final concentration), immediately mixed for 15 seconds on a Eppendorf mixmate (2000 rpm) followed by an incubation at room temperature for 90 minutes in the dark. Reaction is stopped by adding of 60 μl binding buffer for FP/cAMP (kit component).
(§6) Each assay plate contained wells with vehicle controls (1% DMSO) for the measurement of non-inhibited reaction (=100% control) and wells without enzyme as 0% controls.

PDE 10A = PDE 10A (Homo sapiens, UniProt Q9Y233); assay: Radioactive PDE10 assay ([3H]cAMP SPA); assay type: biochemical
Experimental: (§7) The activity of the positive control (minus the negative control=background) is set to 100% and activity in the presence of compound is expressed relative to these 100%.
(§8) IC50 are calculated with GraphPadPrism or other suited software setting the positive control as 100 and the negative control as 0. For calculation of IC50 usually 11 dilutions of the test compound are selected.
protein concentration: 75 pg/μl
In detail the protocol is as follows:
(§9) Into a 384 well plate (OptiPlate, white), the following components are pipetted (either manually or using automated pipetting devices):
(§10) 20 μl test-compound solution (test compound diluted in assay buffer at twofold the desired concentration)
+10 μl PDE 10A preparation (enzyme diluted in assay buffer to a concentration of 0.3 ng/μl protein)
+10 μl cAMP tracer (diluted in assay buffer to a concentration of 80 nM cAMP, specific activity ˜4 mCi/l)
After addition of all 3 components the plates are shortly spun and incubated at room temperature for 60 min. The reaction is stopped by the addition of 20 μl Yttrium SPA PDE Beads containing 18 mM zinc sulphate in water
PDE 10A protein is expressed upon baculovirus infection in SF9 cells. The cells have been incubated upon infection for ˜3 days and protein production was confirmed by Western Blot. The cells were collected by centrifugation and the pellet frozen in liquid nitrogen before it was resuspended in PBS containing 1% Triton X-100 and protease inhibitors.

hERG channel = hERG channel (Homo sapiens, UniProt Q12809); assay: hERG channel assay (whole-cell patch clamp, HEK293 cells transfected with hERG cDNA); assay type: cell-based; details: 35° C.
Description: hERG (Human Ether-à-Go-Go-Related Gene)-Channel Assay
hERG channel inhibition of compounds of the present invention has been investigated as follows:
HEK (human embryonic kidney) 293 cells were stably transfected with hERG cDNA. Cells were superfused with a bath solution containing (mM): NaCl (137), KCl (4.0), MgCl2 (1.0), CaCl2 (1.8), Glucose (10), HEPES (10), pH 7.4 with NaOH. Patch pipettes were made from borosilicate glass tubing using a horizontal puller and filled with pipette solution containing (mM): K-aspartate (130), MgCl2 (5.0), EGTA (5.0), K2ATP (4.0), HEPES (10.0), pH 7.2 with KOH. Resistance of the microelectrodes was in the range between 2 and 5 MΩ.
Stimulation and Recording:
Membrane currents were recorded using an EPC-10 patch clamp amplifier and PatchMaster software. hERG-mediated membrane currents were recorded at 35° C., using the whole-cell configuration of the patch-clamp technique. Transfected HEK293 cells were clamped at a holding potential of −60 mV and hERG-mediated inactivating tail currents were elicited using a pulse pattern with fixed amplitudes (activation/inactivation: 40 mV for 2000 ms; recovery: […]; ramp to 40 mV in 2 ms; inactivating tail current: 40 mV for 50 ms) repeated at 15 s intervals. During each inter-pulse interval 4 pulses scaled down by a factor of 0.2 were recorded for a P/n leak subtraction procedure. […] compensation was employed up to a level that safely allowed recording devoid of ringing.
Compound Preparation and Application:
The different concentrations of the test compound were applied sequentially on each of the different cells investigated. A steady state level of baseline current was measured for at least 6 sweeps prior to the application of the first test compound concentration.
The test compound was dissolved in DMSO to yield a master stock solution which was diluted further in DMSO to stock solutions needed for the lower concentrations. Final dilutions in extracellular buffer were prepared freshly from these stocks by a 1:1000 dilution step each before starting the experiments.
Data analysis and IC50 determination:
Peak current amplitudes were measured 3 ms after the ramp to +40 mV. For baseline and each concentration the peak currents of the three last sweeps before application of the next concentration were averaged. Residual currents ( 1/10) were calculated for each cell as the fraction of actual average peak current and average baseline peak current.
The logistic concentration-response curve of the following form was fitted to the residual current data using a genetic algorithm:
C: actual concentration of compound (in μM) IC50: half-inhibitory concentration (in μM) p: Hill slope

[1] = Metabolic stability in pooled liver microsomes; assay type: in vitro ADME; details: human liver microsomes, 37° C., 1 mg/mL microsomal protein, test compound 1 μM, NADPH
Experimental: The metabolic stability of the compounds according to the invention has been investigated as follows:
The metabolic degradation of the test compound was assayed at 37° C. with pooled liver microsomes from various species. The final incubation volume of 100 μl per time point contains TRIS buffer pH 7.6 at room temperature (0.1 M), magnesium chloride (5 mM), microsomal protein (1 mg/mL for human and dog, 0.5 mg/mL for other species) and the test compound at a final concentration of 1 μM. Following a short preincubation period at 37° C., the reactions were initiated by addition of betanicotinamide adenine dinucleotide phosphate, reduced form (NADPH, 1 mM), and terminated by transferring an aliquot into solvent after different time points. […] The half-life was determined by the slope of the semi-logarithmic plot of the concentration-time profile.

PDE2A [2] = molecular target: T1, PDE2A (Homo sapiens, UniProt O00408); assay: PDE 2A assay with fluorescent substrate (IMAP, fluorescence polarization); assay type: biochemical; details: read-out: PDE2 IC50
Description: as §1, §2, §3, §4, §5, §6

PDE2A [3] = molecular target: T1, PDE2A; assay: Radioactive PDE2 assay ([3H]cAMP SPA); assay type: biochemical
Experimental: a) Radioactive PDE2 Assay Protocol:
PDE 2A protein is expressed upon baculovirus infection in SF9 cells. The cells have been incubated upon infection for ˜3 days and protein production was confirmed by Western Blot. The cells were collected by centrifugation and the pellet frozen in liquid nitrogen before it was resuspended in PBS containing 1% Triton X-100 and protease inhibitors.
as §9, §10
+10 μl PDE 2A preparation (enzyme diluted in assay buffer to a concentration of 0.5 ng/μl protein)
+10 μl [^3H]cAMP (diluted in assay buffer to a concentration of 80 nM cAMP)
positive control: no inhibitor, DMSO at the concentration as used in the compound dilutions
negative control: no PDE 2 (SF9 lysate instead of SF9/PDE 2A lysate)
Calculation of % Inhibition:
as §7, §8

[4] = Animal experiments and sample analysis: plasma, brain and CSF concentration; assay type: in vivo; details: rat; for concentration at 2 h / Kp at 2 h: 2 h between administration and CSF sampling; for concentration at 2 h / concentration at 0.5 h: doses of 10.0 or 5 μmol/kg; for concentration at 0.5 h: 0.5 h between administration and CSF sampling
Experimental: Test compounds were administered to animals (rat) different routes at doses of 10.0 or 5 μmol/kg, (both oral and intravenous). After compound administration, the animals were sacrificed in a CO2 chamber and CSF samples were carefully collected by puncture of the cisterna magna. Immediately after CSF sampling, blood was taken by heart puncture and brains were dissected out. Blood was collected in EDTA-coated microvettes and plasma was prepared by centrifugation. Concentration of the test compounds in plasma, CSF or brain homogenate was determined using HPLC-MS-MS.

[5] = brain, read-out: c(brain)/c(plasma)

T1 sequence (O00408 whole entry, species assumed): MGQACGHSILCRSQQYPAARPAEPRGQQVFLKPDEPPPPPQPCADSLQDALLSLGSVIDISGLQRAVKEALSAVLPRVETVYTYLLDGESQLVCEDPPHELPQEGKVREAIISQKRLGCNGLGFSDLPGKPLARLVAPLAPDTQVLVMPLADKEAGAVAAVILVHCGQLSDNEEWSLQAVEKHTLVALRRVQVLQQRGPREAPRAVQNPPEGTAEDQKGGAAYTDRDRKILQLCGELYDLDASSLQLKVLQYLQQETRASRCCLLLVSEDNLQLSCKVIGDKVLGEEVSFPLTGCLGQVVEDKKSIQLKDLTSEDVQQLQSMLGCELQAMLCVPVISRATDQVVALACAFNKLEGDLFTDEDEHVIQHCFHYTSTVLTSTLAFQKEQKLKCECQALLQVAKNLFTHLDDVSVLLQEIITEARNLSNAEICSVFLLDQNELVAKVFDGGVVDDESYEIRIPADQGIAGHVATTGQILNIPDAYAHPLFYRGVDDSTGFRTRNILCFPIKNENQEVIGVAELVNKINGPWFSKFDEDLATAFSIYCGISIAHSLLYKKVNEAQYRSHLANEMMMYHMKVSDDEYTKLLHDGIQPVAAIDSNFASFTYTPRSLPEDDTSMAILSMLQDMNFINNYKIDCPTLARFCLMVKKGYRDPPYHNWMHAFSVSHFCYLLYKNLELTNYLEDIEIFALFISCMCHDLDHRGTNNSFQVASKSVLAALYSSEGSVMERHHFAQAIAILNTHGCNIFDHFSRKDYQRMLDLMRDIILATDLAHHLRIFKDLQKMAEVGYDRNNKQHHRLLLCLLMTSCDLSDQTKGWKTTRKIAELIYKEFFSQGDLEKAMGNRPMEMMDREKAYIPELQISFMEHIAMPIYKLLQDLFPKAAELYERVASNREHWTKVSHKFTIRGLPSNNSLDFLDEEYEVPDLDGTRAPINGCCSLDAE
Chain of PDE10 (Q9Y233 whole entry, species assumed): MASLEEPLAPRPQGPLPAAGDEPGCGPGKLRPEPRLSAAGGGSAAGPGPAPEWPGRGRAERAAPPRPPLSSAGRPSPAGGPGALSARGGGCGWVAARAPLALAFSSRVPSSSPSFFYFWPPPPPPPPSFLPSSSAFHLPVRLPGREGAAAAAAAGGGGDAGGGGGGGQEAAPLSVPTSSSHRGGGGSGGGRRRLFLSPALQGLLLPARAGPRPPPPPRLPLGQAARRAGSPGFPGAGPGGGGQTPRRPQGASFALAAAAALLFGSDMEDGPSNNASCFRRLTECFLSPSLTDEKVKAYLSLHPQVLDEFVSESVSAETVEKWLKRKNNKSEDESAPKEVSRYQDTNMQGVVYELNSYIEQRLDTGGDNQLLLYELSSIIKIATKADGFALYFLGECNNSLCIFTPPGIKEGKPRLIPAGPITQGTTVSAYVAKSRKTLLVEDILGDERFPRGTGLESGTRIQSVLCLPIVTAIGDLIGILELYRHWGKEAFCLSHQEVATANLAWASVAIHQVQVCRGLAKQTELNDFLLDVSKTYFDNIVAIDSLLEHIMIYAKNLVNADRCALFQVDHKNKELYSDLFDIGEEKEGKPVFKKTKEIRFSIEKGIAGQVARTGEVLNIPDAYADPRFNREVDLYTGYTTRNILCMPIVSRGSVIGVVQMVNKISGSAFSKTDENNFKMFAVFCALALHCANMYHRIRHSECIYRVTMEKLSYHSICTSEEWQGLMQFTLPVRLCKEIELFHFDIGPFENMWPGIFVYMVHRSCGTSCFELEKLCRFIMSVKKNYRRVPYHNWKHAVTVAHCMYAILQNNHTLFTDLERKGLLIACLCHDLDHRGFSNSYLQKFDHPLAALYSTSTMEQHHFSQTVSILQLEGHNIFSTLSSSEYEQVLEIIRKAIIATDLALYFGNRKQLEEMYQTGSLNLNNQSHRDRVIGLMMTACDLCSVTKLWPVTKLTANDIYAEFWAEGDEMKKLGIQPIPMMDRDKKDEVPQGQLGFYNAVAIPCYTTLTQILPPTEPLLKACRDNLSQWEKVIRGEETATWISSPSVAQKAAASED
Chain of PDE 10A (Q9Y233 whole entry, species assumed): as above
Chain of hERG channel (Q12809 whole entry): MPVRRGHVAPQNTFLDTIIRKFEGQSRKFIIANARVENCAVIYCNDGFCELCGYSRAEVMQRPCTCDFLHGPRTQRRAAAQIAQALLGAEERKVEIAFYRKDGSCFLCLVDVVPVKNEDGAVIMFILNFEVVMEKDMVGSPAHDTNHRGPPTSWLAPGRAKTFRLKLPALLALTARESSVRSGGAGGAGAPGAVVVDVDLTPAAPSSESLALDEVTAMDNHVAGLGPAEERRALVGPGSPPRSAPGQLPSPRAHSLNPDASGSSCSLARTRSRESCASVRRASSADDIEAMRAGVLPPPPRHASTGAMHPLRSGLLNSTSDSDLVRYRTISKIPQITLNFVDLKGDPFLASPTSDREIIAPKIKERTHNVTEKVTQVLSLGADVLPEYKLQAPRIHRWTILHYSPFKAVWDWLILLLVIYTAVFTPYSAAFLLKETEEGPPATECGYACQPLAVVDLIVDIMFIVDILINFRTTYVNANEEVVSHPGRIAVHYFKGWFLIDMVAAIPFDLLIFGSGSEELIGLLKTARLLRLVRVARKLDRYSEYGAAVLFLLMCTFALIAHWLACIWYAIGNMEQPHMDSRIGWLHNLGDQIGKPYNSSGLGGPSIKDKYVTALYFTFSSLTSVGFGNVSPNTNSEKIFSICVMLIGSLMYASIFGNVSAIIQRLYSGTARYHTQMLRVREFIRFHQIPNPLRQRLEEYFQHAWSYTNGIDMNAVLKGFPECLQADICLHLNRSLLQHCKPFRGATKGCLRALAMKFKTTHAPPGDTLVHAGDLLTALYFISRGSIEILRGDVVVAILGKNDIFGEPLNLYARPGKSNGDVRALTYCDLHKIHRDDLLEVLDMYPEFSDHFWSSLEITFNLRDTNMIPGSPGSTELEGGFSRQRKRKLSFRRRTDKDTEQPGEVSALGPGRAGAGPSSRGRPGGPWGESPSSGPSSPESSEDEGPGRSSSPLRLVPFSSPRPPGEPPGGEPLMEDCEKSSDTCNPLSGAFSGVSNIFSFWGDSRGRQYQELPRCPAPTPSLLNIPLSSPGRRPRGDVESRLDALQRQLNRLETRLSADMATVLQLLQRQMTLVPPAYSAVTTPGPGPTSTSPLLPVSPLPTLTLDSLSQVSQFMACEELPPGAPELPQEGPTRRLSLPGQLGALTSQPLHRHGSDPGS

SMILES	IC50 (PDE10) [nM]	IC50 (hERG channel) [nM]	Half-life - t½ [1] [h]	IC50 (PDE2A [2]) [nM]	IC50 (PDE2A [3]) [nM]	also measured
Cc1ccc2nc(C)c3nnc(-c4cc(OCCCO)ccc4Cl)n3c2n1 [Example 27]	958	> 10000	–	–	–	IC50 (PDE 10A): 970 nM
Cc1ccc2nc(C)c3nnc(-c4cc(OC5CCOCC5)ccc4Cl)n3c2n1 [Example 32]	–	> 10000	2.17	–	–	–
Cc1nc2ccc(C3CC3)nc2n2c(-c3cc(C(C)(C)O)ccc3Cl)nnc12 [Example 85]	4320	> 10000	2.17	6	–	–
Cc1nc2cccnc2n2c(-c3cc(O)ccc3Cl)nnc12 [Example 1]	355	–	2.17	–	–	IC50 (PDE 10A): 421 nM
Cc1nc2cccnc2n2c(-c3cc(O[C@@H]4CCOC4)ccc3Cl)nnc12 [Example 23]	–	–	–	216	71	–
Cc1nc2cccnc2n2c(-c3cc(O[C@H]4CCOC4)ccc3Cl)nnc12 [Example 24]	–	–	–	–	138	–
Cc1nc2cccnc2n2c(-c3cc(OC4CCOC4)ccc3Cl)nnc12 (centres unmarked) [Example 22]	–	–	–	207	115	–
Cc1nc2ccc(C3CC3)nc2n2c(-c3cc(C(C)(C)O)ccc3F)nnc12 [Example 76]	1100	> 10000	2.17	21	–	concentration at 2 h ([4]; brain, read-out: conc brain): 218 nM; Kp at 2 h [4, 5]: 0.5; concentration at 2 h ([4]; plasma, read-out: conc plasma): 463 nM; concentration at 2 h ([4]; read-out: conc CSF): 18 nM; Kp at 2 h ([4]; read-out: c(CSF)/c(plasma)): 0.04
Cc1ccc(C(C)(C)O)cc1-c1nnc2c(C)nc3ccc(C4CC4)nc3n12 [Example 75]	–	> 10000	2.17	–	–	concentration at 2 h ([4]; brain, read-out: conc brain): 383 nM; Kp at 2 h [4, 5]: 0.34; concentration at 2 h ([4]; plasma, read-out: conc plasma): 1130 nM; concentration at 2 h ([4]; read-out: conc CSF): 31 nM; Kp at 2 h ([4]; read-out: c(CSF)/c(plasma)): 0.03
Cc1nc2cccnc2n2c(-c3cc(OC[C@H](C)O)ccc3Cl)nnc12 [Example 18]	–	> 10000	2.17	–	–	concentration at 0.5 h ([4]; brain, read-out: conc brain): 351 nM; concentration at 0.5 h ([4]; plasma, read-out: conc plasma): 1220 nM; concentration at 0.5 h ([4]; read-out: conc CSF): 163 nM
Cc1ccc2nc(C)c3nnc(-c4cc(OCCCOC(F)(F)F)ccc4Cl)n3c2n1 [Example 33]	–	–	–	5	4	–
Cc1ccc2nc(C)c3nnc(-c4cc(OC[C@@H](C)O)ccc4Cl)n3c2n1 [Example 35]	–	–	2.17	17	9	–
Cc1nc2cccnc2n2c(-c3cc(OC4CCOCC4)ccc3Cl)nnc12 [Example 20]	–	> 10000	2.17	–	–	concentration at 0.5 h ([4]; brain, read-out: conc brain): 272 nM; concentration at 0.5 h ([4]; plasma, read-out: conc plasma): 338 nM; concentration at 0.5 h ([4]; read-out: conc CSF): 37 nM; IC50 (PDE 10A): 2760 nM
Cc1nc2cccnc2n2c(-c3cc(OC4CCC(O)C4)ccc3Cl)nnc12 (centres unmarked) [Example 40]	–	–	–	77	80	–
Cc1ccc2nc(C)c3nnc(-c4cc(OC[C@H](C)O)ccc4Cl)n3c2n1 [Example 34]	–	> 10000	2.17	17	9	concentration at 0.5 h ([4]; brain, read-out: conc brain): 146 nM; concentration at 0.5 h ([4]; plasma, read-out: conc plasma): 223 nM; concentration at 0.5 h ([4]; read-out: conc CSF): 19 nM
Cc1nc2cccnc2n2c(-c3cc(CCC(C)(C)O)ccc3Cl)nnc12 [Example 64]	3870	> 10000	2.17	45	–	concentration at 2 h ([4]; brain, read-out: conc brain): 254 nM; Kp at 2 h [4, 5]: 0.5; concentration at 2 h ([4]; plasma, read-out: conc plasma): 783 nM; concentration at 2 h ([4]; read-out: conc CSF): 37 nM; Kp at 2 h ([4]; read-out: c(CSF)/c(plasma)): 0.06
Cc1nc2ccc(C3CC3)nc2n2c(-c3cc(OCC(C)(C)O)ccc3Cl)nnc12 [Example 45]	–	> 10000	2.17	–	–	concentration at 2 h ([4]; brain, read-out: conc brain): 183 nM; concentration at 2 h ([4]; plasma, read-out: conc plasma): 801 nM; concentration at 2 h ([4]; read-out: conc CSF): 25 nM
Cc1nc2cccnc2n2c(-c3cc(CC(C)(C)O)ccc3Cl)nnc12 [Example 82]	5620	> 10000	2.17	199	–	–
Cc1nc2cccnc2n2c(-c3cc(OCC4(O)CCC4)ccc3Cl)nnc12 [Example 49]	3760	> 10000	2.17	33	–	concentration at 2 h ([4]; brain, read-out: conc brain): 47 nM; Kp at 2 h [4, 5]: 0.2; concentration at 2 h ([4]; plasma, read-out: conc plasma): 239 nM; concentration at 2 h ([4]; read-out: conc CSF): 13 nM; Kp at 2 h ([4]; read-out: c(CSF)/c(plasma)): 0.06
Cc1nc2ccc(C3CC3)nc2n2c(-c3cc(OCC(C)(C)O)ccc3F)nnc12 [Example 47]	852	> 10000	2.17	8	–	concentration at 2 h ([4]; brain, read-out: conc brain): 441 nM; Kp at 2 h [4, 5]: 0.7; concentration at 2 h ([4]; plasma, read-out: conc plasma): 622 nM; concentration at 2 h ([4]; read-out: conc CSF): 22 nM; Kp at 2 h ([4]; read-out: c(CSF)/c(plasma)): 0.04
Cc1ccc(OCC(C)(C)O)cc1-c1nnc2c(C)nc3ccc(C4CC4)nc3n12 [Example 48]	–	> 10000	2.17	8	–	–
Cc1nc2cccnc2n2c(-c3cc(C4(O)CCOCC4)ccc3Cl)nnc12 [Example 93]	6110	> 10000	2.17	86	–	–
Cc1nc2cccnc2n2c(-c3cc(OC4COCC4O)ccc3Cl)nnc12 (racemic) [Example 55]	–	> 10000	2.17	–	–	–
Cc1nc2cccnc2n2c(-c3cc(C4(O)CCC4)ccc3Cl)nnc12 [Example 87]	2590	> 10000	2.17	74	–	–
Cc1nc2cccnc2n2c(-c3cc(OCCO)ccc3Cl)nnc12 [Example 15]	1120	–	–	112	40	–

— US20140045856A1, “4-Methyl-2,3,5,9,9b-pentaaza-cyclopenta[a]naphthalenes” (BOEHRINGER INGELHEIM INTERNATIONAL GMBH, priority 2012, published 2014)
